Test results published in patent publication EP3412661A1, “COCRYSTALS OF VORTIOXETINE HYDROBROMIDE AND RESORCINOL” (Enantia, S.L., priority 2017, dated 2018).
Converted amounts (≈) assume the structure as drawn. Where a name gives a salt, the structure may show the parent alone.

Columns and labels:
[1] = according to WO2007/144005A1 / US9562024B2; hydrobromide; cited from earlier work
[2] = cited from earlier work
[3] = cited from earlier work; remark: listed apart in the source
[4] = Stability test under accelerated stability conditions (ICH), crystalline phase checked by XRPD; assay type: physicochemical; settings: 40 °C / 75±5% RH
Method: The samples were analyzed by XRPD to observe if the crystalline phase was stable (see Table 2).

[5] = Comparative kinetic solubility study in water at room temperature (HPLC vortioxetine peak area, pH and XRPD of filtered solid); settings: for Analysis 1 XRPD / Analysis 2 XRPD / Analysis 1 pH / Analysis 2 pH: Form β study; for Analysis 1 XRPD / Analysis 2 XRPD: filtered solid; for Analysis 1 pH / Analysis 2 pH: mother liquor
Method: A comparative kinetic solubility study of the cocrystal of vortioxetine·HBr and resorcinol 2:1 Form I and with vortioxetine·HBr Form β was performed in water at room temperature (RT). The relative solubility of vortioxetine was obtained by comparison of the vortioxetine peak area in the HPLC analyses of the mother liquors.
The solubility tests were performed in a minireactor HME-R, provided with a 250 mL vessel, a temperature sensor and mechanical stirring.
1 g of each material was stirred in water (150 ml, […]) at 350 rpm. Aliquots of ca. 5 ml of suspension were filtered in a sintered glass funnel (#4) at different times: 30, 60, 180 min and 24 h. After filtration, the pH of the mother liquor was determined. 1 mL of mother liquor was measured with a pipette and diluted to 10 mL with water in a volumetric flask. A portion of this solution was filtered again through a 0.20 µm nylon filter and directly analyzed by HPLC (2 injections for each sample). The filtered solids were analyzed by XRPD, without a drying step, to determine the crystalline phase corresponding to the measured solubility.
The HPLC conditions were the following:
The kinetic solubility of cocrystal vortioxetine hydrobromide and resorcinol Form I and vortioxetine·HBr Form β at room temperature in water was determined in duplicate.

[6] = compared with vortioxetine hydrobromide Form β (example 140 of US9562024B2); cited from earlier work
[7] = water, room temperature, 30 min
[8] = water, room temperature, 60 min
[9] = water, room temperature, 180 min

Cc1ccc(Sc2ccccc2N2CCNCC2)c(C)c1 [Form α of vortioxetine hydrobromide, vortioxetine hydrobromide]
stability [1]: unstable and is transformed to the Form β of vortioxetine hydrobromide at room temperature | solubilities in water ([2]; Examples 4b and 4d of WO2007/144005A1, listed as vortioxetine hydrobromide Form α, hydrobromide): 2 mg/mL

Cc1ccc(Sc2ccccc2N2CCNCC2)c(C)c1 [Form γ of vortioxetine hydrobromide, vortioxetine hydrobromide]
stability [1]: very unstable | hygroscopicity ([3]; under low-humidity conditions): 2.0%

Cc1ccc(Sc2ccccc2N2CCNCC2)c(C)c1 [Vortioxetine, 1-[2-(2,4-dimethyl-phenylsulfanyl)-phenyl]piperazine]
solubility in water ([2]; 25 °C): 7.8 µg/mL (≈ 26.1 µM)

Cc1ccc(Sc2ccccc2N2CCNCC2)c(C)c1 [Vortioxetine·HBr Form β, vortioxetine hydrobromide]
XRPD ([4]; 7 days): stable | XRPD ([4]; 14 days): stable | XRPD ([4]; 21 days): stable | XRPD ([4]; 28 days, hydrobromide): stable | XRPD ([4]; 28 days, listed as Vortioxetine•HBr Form β, hydrobromide): remained stable | maximum of solubility afforded after [5]: three hours | spring and parachute effect [5]: not seen | Analysis 1 Average Form β (Vortioxetine area) ([5]; 30 min): 564 | Analysis 2 Average Form β (Vortioxetine area) ([5]; 30 min): 427 | Average Vortioxetine area ([5]; 30 min): 495 | Analysis 1 Average Form β (Vortioxetine area) ([5]; 60 min): 550 | Analysis 2 Average Form β (Vortioxetine area) ([5]; 60 min): 537 | Average Vortioxetine area ([5]; 60 min): 544 | Analysis 1 Average Form β (Vortioxetine area) ([5]; 180 min): 579 | Analysis 2 Average Form β (Vortioxetine area) ([5]; 180 min): 561 | Average Vortioxetine area ([5]; 180 min): 570 | Analysis 1 Average Form β (Vortioxetine area) ([5]; 24 h): 572 | Analysis 2 Average Form β (Vortioxetine area) ([5]; 24 h): 581 | Average Vortioxetine area ([5]; 24 h): 576 | Analysis 1 XRPD [5, 7]: Form β | Analysis 2 XRPD [5, 7]: Form β | Analysis 1 XRPD [5, 8]: Form β | Analysis 2 XRPD [5, 8]: Form β | Analysis 1 XRPD [5, 9]: Form β | Analysis 2 XRPD [5, 9]: Form β | Analysis 1 XRPD ([5]; water, room temperature, 24 h): Form β | Analysis 2 XRPD ([5]; water, room temperature, 24 h): Form β | Analysis 1 pH [5, 7]: 4.9 | Analysis 2 pH [5, 7]: 5.3 | Analysis 1 pH [5, 8]: 4.8 | Analysis 2 pH [5, 8]: 5.1 | Analysis 1 pH [5, 9]: 4.8 | Analysis 2 pH [5, 9]: 5.1 | Analysis 1 pH ([5]; water, room temperature, 24 h): 5.6 | Analysis 2 pH ([5]; water, room temperature, 24 h): 5.5 | crystalline form after 24 hours in water dispersion ([5]; water, room temperature, 24 hours, XRPD): unchanged | pH ([5]; water, room temperature, remaining constant over the study): 4-5

Br.Br.Cc1ccc(Sc2ccccc2N2CCNCC2)c(C)c1.Cc1ccc(Sc2ccccc2N2CCNCC2)c(C)c1.Oc1cccc(O)c1 [cocrystal Form I, cocrystal of vortioxetine hydrobromide and resorcinol]
XRPD ([4]; 7 days): stable | XRPD ([4]; 14 days): stable | XRPD ([4]; 21 days): stable | XRPD ([4]; 28 days): stable | XRPD ([4]; 28 days, listed as cocrystal of vortioxetine hydrobromide and resorcinol Form I): remained stable | XRPD ([4]; 28 days, listed as cocrystal of vortioxetine·HBr and resorcinol Form I): remained stable

Cc1ccc(Sc2ccccc2N2CCNCC2)c(C)c1 [ethyl acetate solvate of vortioxetine hydrobromide]
stability [1]: unstable

Cc1ccc(Sc2ccccc2N2CCNCC2)c(C)c1 [hemihydrate of vortioxetine hydrobromide, vortioxetine hydrobromide]
stability [1]: unstable | hygroscopicity (in words) ([3]; according to WO2007/144005A1 / US9562024B2): hygroscopic

Cc1ccc(Sc2ccccc2N2CCNCC2)c(C)c1 [vortioxetine hemihydrobromide]
kinetic solubility [6]: much lower
